The subject of one experiment is bone growth. Briefly: Collagen disc implantation with Noggin-blockers and BMP-2 in rat ectopic model. Format: in vivo, Harlan athymic rats. The note with it: for Average / Results: 100ul, collagen carrier, chest implant, 4 weeks. From the text:
Harlan athymic rats about 5-6 weeks of age were chest implanted with a collegan disc and doses of N50 in combination with BMP-2. After 4 weeks the rats were sacrificed and evaluated for bone growth.

For experiment [1], the system named is fetal rat calvarial osteoblast primary cell cultures. Briefly: BMP-induced bone nodules in fetal rat calvarial osteoblast primary cell cultures. As to conditions: FIG. 6. The class given is cell-based.
The next experiment has as its target T1, Noggin (Homo sapiens, UniProt Q13253).
T1 construct: host or cells: added to mouse C2C12 cells
T1 sequence (Q13253 28-232): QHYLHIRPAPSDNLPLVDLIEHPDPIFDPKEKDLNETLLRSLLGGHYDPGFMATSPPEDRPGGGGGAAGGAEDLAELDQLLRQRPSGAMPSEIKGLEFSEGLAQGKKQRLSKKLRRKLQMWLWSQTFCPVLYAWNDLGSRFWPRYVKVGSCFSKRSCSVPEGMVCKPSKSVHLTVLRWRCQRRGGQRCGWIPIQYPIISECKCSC
In words: in vitro cell-based screening assays (luciferase reporter and ALP assays in C2C12 cells). The note with it: BMP-2 +/- Noggin, FIG. 2-5. The procedure:
The known crystals structures of complexes of BMP-2/BMPR-IA, BMP7/Noggin and BMP-2/BMPR-IA/ActR-II and BMPR-II monomer structures were analyzed. Using these structures ternary complexes of BMP-2/BMPR-IA/BMPR-II and BMP-2/Noggin (from BMP7/Noggin) were modeled. Solvent accessibility of complexes and the monomers were computed to identify exact binding regions and the individual residues involved in binding. The entire 430 Å^2 surface area of Noggin that binds to BMP-2 and thus block binding of BMP to BMPR-IA and BMPR-II binding regions were analyzed. Complementary regions in BMP were also evaluated in extensive virtual screenings using LUDI docking procedures using CAP commercially available molecular databases.
Mouse C2C12 cells and Dulbecco's modified Eagle's medium (DMEM) were purchased from ATCC (Manassas, Va.). […] When the flasks reached 80% confluence, the cells were trypsinized and seeded in triplicate at 200,000 cells/well in a 6-well plate for quantitative real-time RT-PCR and alkaline phosphatase (ALP) assays or at 50,000 cells/well in a 12-well plate for the dual-luciferase reporter assay.
The C2C12 cells were plated at 200,000 cells/well in 6-well plates and grown overnight in DMEM containing 10% FBS. […] The ALP activity was measured in triplicate using an ALP assay kit (Sigma-Aldrich, St. Louis, Mo.) in microtiter plates. […]
(A reporter such as luciferase makes a cellular process visible.)

The target in a further experiment is T2, endogenous Noggin (Mus musculus, UniProt P97466).
T2 construct: in the absence of exogenously added Noggin in C2C12 cells; endogenous in cells; host or cells: mouse C2C12 cells (ATCC)
T2 sequence (P97466 28-232): T1 sequence (Q13253 28-232) with A67P
In words: BMP-induced ALP activity in C2C12 cells without exogenously added Noggin. The class given is cell-based. As to conditions: absence of exogenously added Noggin, FIG. 8. The procedure: Mouse C2C12 cells and Dulbecco's modified Eagle's medium (DMEM) were purchased from ATCC (Manassas, Va.). The non-heat inactivated fetal bovine serum (FBS) was purchased from HyClone Laboratories, Inc. (Logan, Utah). The C2C12 cells at passages 4 to 7 were subcultured in T-75 cm2 flasks in DMEM supplemented with 10% FBS at 37° C. in 5% CO2 with humidification. When the flasks reached 80% confluence, the cells were trypsinized and seeded in triplicate at 200,000 cells/well in a 6-well plate for quantitative real-time RT-PCR and alkaline phosphatase (ALP) assays or at 50,000 cells/well in a 12-well plate for the dual-luciferase reporter assay.
The C2C12 cells were plated at 200,000 cells/well in 6-well plates and grown overnight in DMEM containing 10% FBS. On day 2, the culture medium was replaced with DMEM containing 2% FBS and the cells were treated with 100 ng/ml of BMP-2, +/−various concentrations of the Noggin-interacting compound, and +/−100 ng/ml of Noggin for 72 hours. […] The ALP activity was measured in triplicate using an ALP assay kit (Sigma-Aldrich, St. Louis, Mo.) in microtiter plates. The protein amount was determined with Bio-Rad protein assay reagent (Bio-Rad, Hercules, Calif.) using bovine serum albumin (BSA) as a standard. […]

The text below walks through data of US9295754B2, “Noggin inhibitory compositions for ossification and methods related thereto” (Emory University, priority 2011, dated 2016).

Positions count from the first letter of the chain named.

For the molecule `N#CC(=Cc1cccc(Cl)c1)c1ccccn1` (racemic) [N50, 3-(3-chlorophenyl)-2-(pyridin-2-yl)acrylonitrile], the Average turned out to be 3 in the experiment with bone growth (N50 4 mM + BMP-2 1.5 ug); 4.25 with bone growth (N50 4 mM + BMP-2 5 ug); 1.75 in the experiment with bone growth (N50 8 mM + BMP-2 1.5 ug); 3.25 with bone growth (N50 8 mM + BMP-2 5 ug); 3.5 with bone growth (N50 12 mM + BMP-2 1.5 ug); 4.75 with bone growth (N50 12 mM + BMP-2 5 ug). The Results result with bone growth (N50 4 mM + BMP-2 1.5 ug) is “Bone made (4 of 4)”; with bone growth (N50 4 mM + BMP-2 5 ug) it was “Bone made (4 of 4)”; in the experiment with bone growth (N50 8 mM + BMP-2 1.5 ug) it was “Bone made (2 of 4)”; in the experiment with bone growth (N50 8 mM + BMP-2 5 ug), “Bone made (3 of 4)”; with bone growth (N50 12 mM + BMP-2 1.5 ug), “Bone made (4 of 4)”; in the experiment on bone growth (N50 12 mM + BMP-2 5 ug), “Bone made (4 of 4)”. Moreover, in the experiment with bone growth (N50 in combination with BMP-2, after 4 weeks, certain doses), the bone growth entry is “Certain doses showed improvement”. Besides, the BMP-induced bone nodules entry in experiment [1] is on record as “potentiation of BMP-induced bone nodules”. For the same molecule, the Noggin blocking entry at Noggin is “confirmed Noggin blockers”.

For `Cc1cc(C)nc(NC(=O)c2sc3ccccc3c2Cl)c1` [N2, 3-chloro-N-(4,6-dimethylpyridin-2-yl)benzo[b]thiophene-2-carboxamide], the Noggin blocking entry on Noggin is reported as “confirmed Noggin blockers”.

Consider `Cc1ccc(C(C#N)=Cc2cccc([N+](=O)[O-])c2)cc1` [N50-083, 3-(3-nitrophenyl)-2-(p-tolyl)acrylonitrile], for which the “function of endogenous Noggin / BMP-induced ALP activity” value at endogenous Noggin is “blocks function of endogenous Noggin by potentiating BMP-induced ALP activity”.
